Assay results as given in ChEMBL document CHEMBL1201862, “PubChem BioAssay data set” (2004).
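Results reflect a 48-hour exposure of cells in 96-well plates to compound at five concentrations. At the GI50, growth is halved.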 Active and inactive are the calls of the source. Rule as the data show it: active = GI50 up to about 1.1 µM and inactive = higher.

Tests used:
Test in all cases: NCI anticancer screen, dose series, 48 h
A498 = test system: A498
ACHN = test system: ACHN
CAKI-1 = test system: CAKI-1
CCRF-CEM = test system: CCRF-CEM
COLO 205 = test system: COLO 205
DMS-114 = test system: DMS-114
DMS-273 = test system: DMS-273
EKVX = test system: EKVX
HCT-15 = test system: HCT-15
HL-60 = test system: HL-60
HOP-18 = test system: HOP-18
HOP-92 = test system: HOP-92
HT-29 = test system: HT-29
IGROV-1 = test system: IGROV-1
K562 = test system: K562
KM-20L2 = test system: KM-20L2
LOX IMVI = test system: LOX IMVI
LXFL 529 = test system: LXFL 529
M14 = test system: M14
M19-MEL = test system: M19-MEL
MOLT-4 = test system: MOLT-4
Malme-3M = test system: Malme-3M
NCI-H226 = test system: NCI-H226
NCI-H23 = test system: NCI-H23
NCI-H460 = test system: NCI-H460
NCI-H522 = test system: NCI-H522
OVCAR-3 = test system: OVCAR-3
OVCAR-8 = test system: OVCAR-8
RPMI-8226 = test system: RPMI-8226
RXF 631 = test system: RXF 631
SF-268 = test system: SF-268
SF-295 = test system: SF-295
SF-539 = test system: SF-539
SK-MEL-28 = test system: SK-MEL-28
SK-MEL-2 = test system: SK-MEL-2
SK-MEL-5 = test system: SK-MEL-5
SK-OV-3 = test system: SK-OV-3
SN12C = test system: SN12C
SNB-19 = test system: SNB-19
SNB-75 = test system: SNB-75
SNB-78 = test system: SNB-78
SW-620 = test system: SW-620
TK-10 = test system: TK-10
U-251 = test system: U-251
UACC-62 = test system: UACC-62
UO-31 = test system: UO-31
786-0 = test system: 786-0
DLD-1 = test system: DLD-1
HCC 2998 = test system: HCC 2998
HCT-116 = test system: HCT-116
HOP-62 = test system: HOP-62
OVCAR-4 = test system: OVCAR-4
SR = test system: SR
A549 = test system: A549
RXF 393 = test system: RXF 393
UACC-257 = test system: UACC-257
XF498 = test system: XF498
KM12 = test system: KM12
OVCAR-5 = test system: OVCAR-5

COC(=O)NN1C(=O)C(=P(c2ccccc2)(c2ccccc2)c2ccccc2)C(C(=O)OC)=C1C
GI50 (A498): > 100 µM (inactive)
GI50 (ACHN): > 100 µM (inactive)
GI50 (CAKI-1): > 100 µM (inactive)
GI50 (CCRF-CEM): > 100 µM (inactive)
GI50 (COLO 205): > 100 µM (inactive)
GI50 (DMS-114): > 100 µM (inactive)
GI50 (DMS-273): > 100 µM (inactive)
GI50 (EKVX): > 100 µM (inactive)
GI50 (HCT-15): > 100 µM
GI50 (HL-60): 52.5 µM (inactive)
GI50 (HOP-18): > 100 µM (inactive)
GI50 (HOP-92): 12.6 µM (inactive)
GI50 (HT-29): > 100 µM (inactive)
GI50 (IGROV-1): > 100 µM (inactive)
GI50 (K562): > 100 µM (inactive)
GI50 (KM-20L2): > 100 µM (inactive)
GI50 (LOX IMVI): > 100 µM (inactive)
GI50 (LXFL 529): > 100 µM (inactive)
GI50 (M14): > 100 µM (inactive)
GI50 (M19-MEL): > 100 µM (inactive)
GI50 (MOLT-4): > 100 µM (inactive)
GI50 (Malme-3M): > 100 µM (inactive)
GI50 (NCI-H226): > 100 µM (inactive)
GI50 (NCI-H23): > 100 µM (inactive)
GI50 (NCI-H460): > 100 µM (inactive)
GI50 (NCI-H522): > 100 µM (inactive)
GI50 (OVCAR-3): > 100 µM (inactive)
GI50 (OVCAR-8): > 100 µM (inactive)
GI50 (RPMI-8226): 60.5 µM (inactive)
GI50 (RXF 631): > 100 µM (inactive)
GI50 (SF-268): > 100 µM (inactive)
GI50 (SF-295): > 100 µM (inactive)
GI50 (SF-539): > 100 µM (inactive)
GI50 (SK-MEL-28): > 100 µM (inactive)
GI50 (SK-MEL-2): > 100 µM (inactive)
GI50 (SK-MEL-5): > 100 µM (inactive)
GI50 (SK-OV-3): > 100 µM (inactive)
GI50 (SN12C): > 100 µM (inactive)
GI50 (SNB-19): > 100 µM (inactive)
GI50 (SNB-75): > 100 µM (inactive)
GI50 (SNB-78): > 100 µM (inactive)
GI50 (SW-620): > 100 µM (inactive)
GI50 (TK-10): > 100 µM (inactive)
GI50 (U-251): > 100 µM (inactive)
GI50 (UACC-62): > 100 µM (inactive)
GI50 (UO-31): > 100 µM (inactive)

Cc1c2n(c3ccccc13)CC1CON(C)C21 (stereo unspecified)
GI50 (786-0): > 100 µM (inactive)
GI50 (CAKI-1): > 100 µM (inactive)
GI50 (CCRF-CEM): > 100 µM (inactive)
GI50 (COLO 205): > 100 µM (inactive)
GI50 (DLD-1): > 100 µM (inactive)
GI50 (DMS-114): > 100 µM (inactive)
GI50 (DMS-273): > 100 µM (inactive)
GI50 (HCC 2998): > 100 µM (inactive)
GI50 (HCT-116): > 100 µM (inactive)
GI50 (HL-60): > 100 µM (inactive)
GI50 (HOP-62): > 100 µM (inactive)
GI50 (HOP-92): > 100 µM (inactive)
GI50 (IGROV-1): > 100 µM (inactive)
GI50 (K562): > 100 µM (inactive)
GI50 (LXFL 529): > 100 µM (inactive)
GI50 (M14): > 100 µM (inactive)
GI50 (M19-MEL): > 100 µM (inactive)
GI50 (MOLT-4): > 100 µM (inactive)
GI50 (Malme-3M): > 100 µM (inactive)
GI50 (NCI-H226): > 100 µM (inactive)
GI50 (NCI-H23): > 100 µM (inactive)
GI50 (NCI-H522): > 100 µM (inactive)
GI50 (OVCAR-4): > 100 µM (inactive)
GI50 (RPMI-8226): > 100 µM (inactive)
GI50 (RXF 631): > 100 µM (inactive)
GI50 (SF-268): > 100 µM (inactive)
GI50 (SF-539): > 100 µM (inactive)
GI50 (SK-MEL-28): > 100 µM (inactive)
GI50 (SK-MEL-2): > 100 µM (inactive)
GI50 (SK-OV-3): > 100 µM (inactive)
GI50 (SNB-75): > 100 µM (inactive)
GI50 (SNB-78): > 100 µM (inactive)
GI50 (SR): > 100 µM (inactive)
GI50 (UACC-62): > 100 µM (inactive)
GI50 (UO-31): > 100 µM (inactive)

CCn1c2ccccc2c2ccc3c(c21)C(=O)c1ccccc1C3=O
GI50 (786-0): > 100 µM (inactive)
GI50 (A498): > 100 µM (inactive)
GI50 (A549): > 100 µM (inactive)
GI50 (ACHN): > 100 µM (inactive)
GI50 (CCRF-CEM): 74.3 µM (inactive)
GI50 (COLO 205): 55.8 µM (inactive)
GI50 (DLD-1): > 100 µM (inactive)
GI50 (DMS-114): > 100 µM (inactive)
GI50 (DMS-273): > 100 µM (inactive)
GI50 (EKVX): 44.8 µM (inactive)
GI50 (HCC 2998): > 100 µM (inactive)
GI50 (HCT-116): > 100 µM (inactive)
GI50 (HCT-15): > 100 µM
GI50 (HL-60): 36.8 µM (inactive)
GI50 (HOP-18): > 100 µM (inactive)
GI50 (HOP-62): > 100 µM (inactive)
GI50 (HOP-92): 82.2 µM (inactive)
GI50 (HT-29): > 100 µM (inactive)
GI50 (IGROV-1): > 100 µM (inactive)
GI50 (K562): > 100 µM (inactive)
GI50 (KM-20L2): > 100 µM (inactive)
GI50 (LXFL 529): > 100 µM (inactive)
GI50 (M14): > 100 µM (inactive)
GI50 (M19-MEL): 24.2 µM (inactive)
GI50 (MOLT-4): 61.5 µM (inactive)
GI50 (Malme-3M): 81.1 µM (inactive)
GI50 (NCI-H226): > 100 µM (inactive)
GI50 (NCI-H23): > 100 µM (inactive)
GI50 (NCI-H522): > 100 µM (inactive)
GI50 (OVCAR-4): > 100 µM (inactive)
GI50 (OVCAR-8): > 100 µM (inactive)
GI50 (RPMI-8226): > 100 µM (inactive)
GI50 (RXF 393): 84.1 µM (inactive)
GI50 (SF-268): > 100 µM (inactive)
GI50 (SF-295): 91.2 µM (inactive)
GI50 (SF-539): > 100 µM (inactive)
GI50 (SK-MEL-28): > 100 µM (inactive)
GI50 (SK-MEL-5): 76.6 µM (inactive)
GI50 (SK-OV-3): > 100 µM (inactive)
GI50 (SN12C): > 100 µM (inactive)
GI50 (SNB-19): > 100 µM (inactive)
GI50 (SNB-75): > 100 µM (inactive)
GI50 (SNB-78): > 100 µM (inactive)
GI50 (SR): 10.4 µM (inactive)
GI50 (SW-620): > 100 µM (inactive)
GI50 (U-251): > 100 µM (inactive)
GI50 (UACC-257): > 100 µM (inactive)
GI50 (UACC-62): > 100 µM (inactive)
GI50 (UO-31): > 100 µM (inactive)
GI50 (XF498): > 100 µM (inactive)

CCOC(=O)C1C(=O)C(C(=O)OCC)C(c2ccccc2)N(C)C1c1ccccc1 (stereo unspecified)
GI50 (786-0): > 100 µM (inactive)
GI50 (A498): > 100 µM (inactive)
GI50 (A549): > 100 µM (inactive)
GI50 (ACHN): > 100 µM (inactive)
GI50 (CAKI-1): > 100 µM (inactive)
GI50 (CCRF-CEM): > 100 µM (inactive)
GI50 (COLO 205): > 100 µM (inactive)
GI50 (DLD-1): > 100 µM (inactive)
GI50 (DMS-114): 56 µM (inactive)
GI50 (DMS-273): > 100 µM (inactive)
GI50 (EKVX): > 100 µM (inactive)
GI50 (HCT-116): 58.2 µM (inactive)
GI50 (HCT-15): 82.4 µM
GI50 (HL-60): 38.7 µM (inactive)
GI50 (HOP-62): > 100 µM (inactive)
GI50 (HOP-92): > 100 µM (inactive)
GI50 (HT-29): > 100 µM (inactive)
GI50 (IGROV-1): > 100 µM (inactive)
GI50 (K562): > 100 µM (inactive)
GI50 (KM-20L2): > 100 µM (inactive)
GI50 (KM12): > 100 µM (inactive)
GI50 (LOX IMVI): 33.9 µM (inactive)
GI50 (LXFL 529): > 100 µM (inactive)
GI50 (M14): > 100 µM (inactive)
GI50 (M19-MEL): > 100 µM (inactive)
GI50 (MOLT-4): 49.5 µM (inactive)
GI50 (Malme-3M): > 100 µM (inactive)
GI50 (NCI-H226): > 100 µM (inactive)
GI50 (NCI-H23): > 100 µM (inactive)
GI50 (NCI-H460): > 100 µM (inactive)
GI50 (NCI-H522): 49.9 µM (inactive)
GI50 (OVCAR-3): > 100 µM (inactive)
GI50 (OVCAR-4): > 100 µM (inactive)
GI50 (OVCAR-5): > 100 µM (inactive)
GI50 (OVCAR-8): > 100 µM (inactive)
GI50 (RXF 393): > 100 µM (inactive)
GI50 (RXF 631): > 100 µM (inactive)
GI50 (SF-268): > 100 µM (inactive)
GI50 (SF-295): > 100 µM (inactive)
GI50 (SF-539): > 100 µM (inactive)
GI50 (SK-MEL-28): > 100 µM (inactive)
GI50 (SK-MEL-2): > 100 µM (inactive)
GI50 (SK-MEL-5): 66.4 µM (inactive)
GI50 (SK-OV-3): > 100 µM (inactive)
GI50 (SN12C): > 100 µM (inactive)
GI50 (SNB-19): > 100 µM (inactive)
GI50 (SNB-75): > 100 µM (inactive)
GI50 (SNB-78): > 100 µM (inactive)
GI50 (SR): > 100 µM (inactive)
GI50 (SW-620): > 100 µM (inactive)
GI50 (TK-10): > 100 µM (inactive)
GI50 (U-251): 95.9 µM (inactive)
GI50 (UACC-257): > 100 µM (inactive)
GI50 (UACC-62): 65.6 µM (inactive)
GI50 (UO-31): > 100 µM (inactive)
